Read-outs that look alike come from different tables or passages of the source.
Target: glucocorticoid receptor (GAL4 DBD-GR) (Homo sapiens (Human), UniProt P04150)
Test: GR cell-based assays (GRE agonist / GRE antagonist), CHO-Gal4/GR luciferase reporter
Source text: Potential selective glucocorticoid receptor modulators of this intervention can be tested for modulation of the activity of the glucocorticoid receptor using cell-based assays. These assays involve a Chinese hamster ovary (CHO) cell line which contains fragments of the glucocorticoid receptor as well as fusion proteins. The glucocorticoid receptor fragments used are capable of binding the ligand (e.g. beclomethasone) to identify molecules that compete for binding with glucocorticoid receptor ligands. In more detail, the glucocorticoid receptor ligand binding domain is fused to the DNA binding domain (DBD) of the transcription factor GAL4 (GAL4 DBD-GR) and is stably integrated into a CHO cell line containing a GAL4-UAS-Luciferase reporter construct. […] After cell lysis the luminescence that is produced by luciferase after addition of the substrate is detected and EC50 or IC50 values can be calcuated. Engagement of molecules which induce gene expression via glucocortocoid receptor binding to the DNA leads to expression of the luciferase gene under the control of the fusion protein GAL4 DBD-GR and therefore to a dose-dependent increase of the luminescence signal. Binding of molecules which repress beclomethasone-induced gene expression of the luciferase gene under the control of the fusion protein GAL4 DBD-GR leads to a dose-dependent reduction of the luminescence signal.
The reporter cell line CHO-Gal4/GR consisted of a chinese hamster ovary (CHO) cell line (Leibniz Institute DSMZ—German Collection of Microorganisms and Cell Cultures GmbH: ACC-110) containing a firefly luciferase gene under the control of the GR ligand binding domain fused to the DNA binding domain (DBD) of GAL4 (GAL4 DBD-GR) stably integrated into CHO cells. This cell line was established by stable transfection of CHO cells with a GAL4-UAS-Luciferase reporter construct. In a subsequent step the ligand binding domain of the GR cloned into pIRES2-EGFP-GAL4 containing the DNA binding domain of GAL4 from pFA-AT2 was transfected. This fusion construct activated firefly luciferase expression under the control of a multimerized GAL4 upstream activation sequence (UAS). The signal of the emitted luminescence was recorded by the FLIPR^TETRA. This allowed for specific detection of ligand-induced activation of the GR and therefore for the identification of compounds with agonistic properties. The GAL4/UAS reporter was premixed with a vector that constitutively expressed Renilla luciferase, which served as an internal positive control for transfection efficiency.
The complete culture medium for the assay was: • DMEM F-12 (1:1) MIXTURE (LONZA cat. No: BE04-687F/U1) 500 mL • 5 mL of 100 mM Sodium Pyruvate (LONZA cat. No: BE12-115E) • 25 mL of 7.5% Sodium Bicarbonate (LONZA cat. No BE17-613E) • 6.5 mL of 1 M Hepes (LONZA cat. No: BE17-737E) • 5 mL of 100× Penicillin/Streptomycin (LONZA cat. No DE17-602E) • 50 mL of Fetal Bovine Serum (Euroclone cat. No ECS 0180L) • 0.25 mL of 10 mg/mL Puromycin (InvivoGen cat.: ant-pr-1) • 0.5 mL of 100 mg/mL Zeocin (InvivoGen cat.: ant-zn-1)
Cryo-preserved CHO-Gal4/GR cells were suspended in complete medium and 5000 cells/25 μl/well were seeded into the wells of 384-well polystyrene assay plates (Thermo Scientific, cat. #4332) and cultured at 37° C., 5% CO2 and 95% humidity. After 24 hours growth medium was carefully removed and replaced by 30 μl Opti-MEM (GIBCO, cat. #31985062) as assay buffer. To test the compounds an 8-point half-log compound dilution curve was generated in 100% DMSO starting from a 2 mM stock and compounds were then diluted 1:50 in Opti-MEM. 10 μl of compounds were then added to the wells containing 30 μl Opti-MEM resulting in a final assay concentration range from 10 μM to 0.003 μM in 0.5% DMSO. Compounds were tested at 8 concentrations in quadruplicate data points. […] Finally, cells were lysed with 20 μl of Triton/Luciferin solution and the signal of the emitted luminescence was recorded at the FLIPR^TETRA for 2 minutes. […]

[1] = CHO-Gal4/GR reporter cells, agonist mode (EC50) or antagonist mode against beclometasone (IC50), 6 hour incubation

glucocorticoid receptor (GAL4 DBD-GR), sequence (P04150 524-758): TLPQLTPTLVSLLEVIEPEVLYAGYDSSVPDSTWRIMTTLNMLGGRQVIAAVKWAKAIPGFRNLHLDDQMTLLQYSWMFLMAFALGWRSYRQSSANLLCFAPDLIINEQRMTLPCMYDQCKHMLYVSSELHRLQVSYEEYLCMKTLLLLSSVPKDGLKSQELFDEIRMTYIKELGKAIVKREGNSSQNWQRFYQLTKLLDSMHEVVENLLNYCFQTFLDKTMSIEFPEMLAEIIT

With `Cc1ncoc1C(=O)N[C@@H]1[C@@H](c2ccccc2)N(c2ccc3c(cnn3-c3ccc(F)cc3)c2)C(=O)C1(C)C` [Example 45a, N-((2R,3S)-1-(1-(4-fluorophenyl)-1H-indazol-5-yl)-4,4-dimethyl-5-oxo-2-phenylpyrrolidin-3-yl)-4-methyloxazole-5-carboxamide] the IC50 [1] was < 100 nM.

`C[C@@H]1C(=O)N(c2ccc3c(cnn3-c3ccc(F)cc3)c2)[C@H](c2ccc(Cl)s2)[C@H]1NC(=O)c1ncccn1` (racemic) [Example 109, N-[rac-(2S,3S,4S)-2-(5-Chloro-thiophen-2-yl)-1-[1-(4-fluorophenyl)-1H-indazol-5-yl]-4-methyl-5-oxo-pyrrolidin-3-yl]-pyrimidine-2-carboxylic acid amide] was tested, and the IC50 (read-out: IC50 or EC50) was < 100 nM.

`O=C(N[C@H]1[C@H](CC(F)F)C(=O)N(c2ccc3c(cnn3-c3ccc(F)cc3)c2)[C@@H]1c1ccccc1)C1CC1` [Example 131, N-((2R,3S,4S)-4-(2,2-difluoroethyl)-1-(1-(4-fluorophenyl)-1H-indazol-5-yl)-5-oxo-2-phenylpyrrolidin-3-yl)cyclopropanecarboxamide] was tested, and the IC50 (read-out: IC50 or EC50) was 100 to 1000 nM.

With `C[C@@H]1C(=O)N(c2ccc3c(cnn3-c3ccc(F)cc3)c2)[C@H](c2ccccc2Cl)[C@H]1NC(=O)c1cccnc1` (racemic) [Example 92, N-[rac-(2R,3S,4S)-2-(2-Chlorophenyl)-1-[1-(4-fluorophenyl)-1H-indazol-5-yl]-4-methyl-5-oxo-pyrrolidin-3-yl]-pyridine-3-carboxylic acid amide] the IC50 (read-out: IC50 or EC50) was < 100 nM.

`CC1(C)C(=O)N(c2ccc3c(cnn3-c3ccc(F)cc3)c2)[C@H](c2ccccc2)[C@H]1NC(=O)c1ncccn1` [Example 43a, N-((2R,3S)-1-(1-(4-fluorophenyl)-1H-indazol-5-yl)-4,4-dimethyl-5-oxo-2-phenylpyrrolidin-3-yl)pyrimidine-2-carboxamide] was tested, and the IC50 [1] was < 100 nM.

With `Cc1cccc([C@@H]2[C@@H](NC(=O)c3ccn(C)n3)[C@@H](C)C(=O)N2c2ccc3c(cnn3-c3ccc(F)cc3)c2)c1` (racemic) [Example 72, N-[rac-(2R,3S,4R)-1-[1-(4-Fluorophenyl)-1H-indazol-5-yl]-4-methyl-2-m-tolyl-5-oxo-pyrrolidin-3-yl]-1-methyl-1H-pyrazole-3-carboxylic acid amide] the IC50 (read-out: IC50 or EC50) was < 100 nM.

`Cn1cc(C[C@H]2C(=O)N(c3ccc4c(cnn4-c4ccc(F)cc4)c3)[C@H](c3ccccc3)[C@H]2NC(=O)C2CC2)cn1` [Example 139b, N-((2R,3S,4R)-1-(1-(4-fluorophenyl)-1H-indazol-5-yl)-4-((1-methyl-1H-pyrazol-4-yl)methyl)-5-oxo-2-phenylpyrrolidin-3-yl)cyclopropanecarboxamide] was tested, and the IC50 (read-out: IC50 or EC50) was 1000 to 15000 nM.

For `O=C(N[C@@H]1[C@@H](c2ccccc2)N(c2ccc3c(cnn3-c3ccc(F)cc3)c2)C(=O)C1(F)F)C1CC1` [Example 96, N-((2R,3R)-4,4-difluoro-1-(1-(4-fluorophenyl)-1H-indazol-5-yl)-5-oxo-2-phenylpyrrolidin-3-yl)cyclopropanecarboxamide], the IC50 [1] was < 100 nM.

`Cc1ncsc1C(=O)N[C@H]1[C@H](C)C(=O)N(c2ccc3c(cnn3-c3ccc(F)cc3)c2)[C@@H]1c1ccc(Cl)s1` (racemic) [Example 113, N-[rac-(2S,3S,4S)-2-(5-Chloro-thiophen-2-yl)-1-[1-(4-fluorophenyl)-1H-indazol-5-yl]-4-methyl-5-oxo-pyrrolidin-3-yl]-4-methyl-thiazole-5-carboxylic acid amide] showed an IC50 (read-out: IC50 or EC50) of 100 to 1000 nM.

`COc1ccc([C@@H]2[C@@H](NC(=O)c3ncccn3)[C@H](C)C(=O)N2c2ccc3c(cnn3-c3ccc(F)cc3)c2)cc1` (racemic) [Example 85, N-[rac-(2R,3S,4S)-1-[1-(4-Fluorophenyl)-1H-indazol-5-yl]-2-(4-methoxyphenyl)-4-methyl-5-oxo-pyrrolidin-3-yl]-pyrimidine-2-carboxylic acid amide] was tested, and the IC50 (read-out: IC50 or EC50) was 100 to 1000 nM.

With `O=C(N[C@@H]1[C@@H](c2ccccc2)N(c2ccc3c(cnn3-c3ccc(F)cc3)c2)C(=O)C12CCC2)C1CC1` [Example 135, N-((7R,8S)-6-(1-(4-fluorophenyl)-1H-indazol-5-yl)-5-oxo-7-phenyl-6-azaspiro[3.4]octan-8-yl)cyclopropanecarboxamid] the IC50 [1] was < 100 nM.

Compound `Cc1ncc(C(=O)N[C@H]2[C@H](c3ccccc3)N(c3ccc4c(cnn4-c4ccc(F)cc4)c3)C(=O)C2(C)C)o1` [Example 44b, N-((2S,3R)-1-(1-(4-fluorophenyl)-1H-indazol-5-yl)-4,4-dimethyl-5-oxo-2-phenylpyrrolidin-3-yl)-2-methyloxazole-5-carboxamide] has an IC50 (read-out: IC50 or EC50) of 100 to 1000 nM.

With `C[C@@H]1C(=O)N(c2ccc3c(cnn3-c3ccc(F)cc3)c2)[C@H](c2ccccc2Cl)[C@H]1NC(=O)C1CC1` (racemic) [Example 112, N-[rac-(2R,3S,4S)-2-(2-Chlorophenyl)-1-[1-(4-fluorophenyl)-1H-indazol-5-yl]-4-methyl-5-oxo-pyrrolidin-3-yl]-cyclopropanecarboxylic acid amide] the IC50 (read-out: IC50 or EC50) was 100 to 1000 nM.

In the case of `Cc1nocc1C(=O)N[C@@H]1[C@@H](c2ccccc2)N(c2ccc3c(cnn3-c3ccc(F)cc3)c2)C(=O)C1(C)C` [Example 40a, N-((2R,3S)-1-(1-(4-fluorophenyl)-1H-indazol-5-yl)-4,4-dimethyl-5-oxo-2-phenylpyrrolidin-3-yl)-3-methylisoxazole-4-carboxamide], the IC50 [1] is reported as < 100 nM.

`Cc1cccc([C@@H]2[C@@H](NC(=O)c3cccnc3)[C@@H](C)C(=O)N2c2ccc3c(cnn3-c3ccc(F)cc3)c2)c1` (racemic) [Example 73, N-[rac-(2R,3S,4R)-1-[1-(4-Fluorophenyl)-1H-indazol-5-yl]-4-methyl-2-m-tolyl-5-oxo-pyrrolidin-3-yl]-pyridine-3-carboxylic acid amide] was tested, and the IC50 (read-out: IC50 or EC50) was < 100 nM.

Compound `CC1(C)C(=O)N(c2ccc3c(cnn3-c3ccc(F)cc3)c2)[C@@H](c2ccccc2)[C@@H]1NC(=O)c1cccnc1` [Example 42b, N-((2S,3R)-1-(1-(4-fluorophenyl)-1H-indazol-5-yl)-4,4-dimethyl-5-oxo-2-phenylpyrrolidin-3-yl)nicotinamide] has an IC50 (read-out: IC50 or EC50) of 100 to 1000 nM.

With `Cc1scnc1C(=O)N[C@@H]1[C@@H](c2ccccc2)N(c2ccc3c(cnn3-c3ccc(F)cc3)c2)C(=O)C1(C)C` [Example 39a, N-((2R,3S)-1-(1-(4-fluorophenyl)-1H-indazol-5-yl)-4,4-dimethyl-5-oxo-2-phenylpyrrolidin-3-yl)-5-methylthiazole-4-carboxamide] the IC50 [1] was < 100 nM.

`CC[C@@H]1[C@@H](NC(=O)C(C)(F)F)[C@H](Cc2ccccc2)C(=O)N1c1ccc2c(cnn2-c2ccc(F)cc2)c1` (racemic) [Example 107, N-[rac-(2R,3S,4S)-4-Benzyl-2-ethyl-1-[1-(4-fluorophenyl)-1H-indazol-5-yl]-5-oxo-pyrrolidin-3-yl]-2,2-difluoro-propionamide] showed an IC50 (read-out: IC50 or EC50) of 1000 to 15000 nM.

`CC[C@@H]1[C@@H](NC(=O)c2ccn(C)n2)[C@H](Cc2ccccc2)C(=O)N1c1ccc2c(cnn2-c2ccc(F)cc2)c1` (racemic) [Example 104, N-[rac-(2R,3S,4S)-4-Benzyl-2-ethyl-1-[1-(4-fluorophenyl)-1H-indazol-5-yl]-5-oxo-pyrrolidin-3-yl]-1-methyl-1H-pyrazole-3-carboxylic acid amide] showed an IC50 (read-out: IC50 or EC50) of 1000 to 15000 nM.

`C[C@@]1(CC(F)F)C(=O)N(c2ccc3c(cnn3-c3ccc(F)cc3)c2)[C@H](c2ccccc2)[C@H]1NC(=O)C1CC1` (racemic) [Example 136, N-(rac(2R,3S,4S)-4-(2,2-difluoroethyl)-1-(1-(4-fluorophenyl)-1H-indazol-5-yl)-4-methyl-5-oxo-2-phenylpyrrolidin-3-yl)cyclopropanecarboxamide] was tested, and the IC50 [1] was < 100 nM.
